Source: patent EP0220153B1, “A nutritive emulsion having oxygen-transporting properties, and process for its preparation” (Kabi Pharmacia AB, priority 1985, dated 1987)

Assay: acute toxicity test on mice
Settings: mouse, in vivo, other: injected, injected as emulsion of example 1 composition, observation time 72 hours, expressed for perfluorodecalin
Procedure: An emulsion of the same composition and prepared in the same way as in example 1 was tested on mice for acute toxicity. Observation time was 72 hours.
It appears that the acute toxicity (LD₅₀) will be just below 30 g/kg for perfluorodecalin. Owing to the great volumes that were injected, it cannot be excluded that changes in liquid and electrolyte balance have affected the results and that, therefore, an examination of this kind not solely reflects the toxicity of the fluorocarbon compound; however, the indicated value of 30 g/kg is of such a magnitude that the preparation can be regarded as non-toxic.

`FC1(F)C(F)(F)C(F)(F)C2(F)C(F)(F)C(F)(F)C(F)(F)C(F)(F)C2(F)C1(F)F` (stereo not shown) [perfluorodecalin] gave an LD50 at 72 h of under 30000 mg/kg.
